What was measured:
Type in all cases: cell-based, human
LNCaP cells = test: Apoptosis by DAPI staining, LNCaP
Procedure: Cells were plated at 2×10^6 in 100 mm cell culture plates, cultured overnight and washed with serum free media before transfection. Plasmids (0.7 μg or 4.2 of μg) or empty vector (pcDNA3) were mixed with 50 μl or 300 μl serum free media and 4 μl or 24 μl PLUS reagent (Invitrogen, CA) and incubated for 15 min at room temperature. Next 2 μl or 12 μl of Lipofectamine reagent (Invitrogen, CA) in 50 μl or 300 μl serum free media were added and the mixture incubated for another 15 min before adding to the cells in 0.5 ml or 5 ml serum free media. Cells were incubated with transfection reagents for 3 h and the growth media containing 2×FBS was added to the cells. Transfected cells were cultured overnight before α-TEA treatment. Transfection efficiency was determined to be 70% using GFP expressing plasmid.
(§1) Assessment of apoptosis based on nuclear morphology using 4′, 6-diamidino-2-phenylindole dihydrochloride (DAPI; Boehringer Mannheim Corp. Indianapolis, Ind.) has been described previously (Yu et al., 2003; Israel et al., 2000). Briefly, 1.5×10^5/well LNCaP or PC-3-GFP cells were plated in 12-well tissue culture plates and cultured overnight to allow cells to attach. On the next day, cells were treated with various concentrations of α-TEA and incubated for various time periods. At the end of treatments, cells were collected, washed with PBS, stained with 25 μl of 2 μg/ml DAPI, and viewed under a fluorescent microscope (model ICM 405 with a model 487701 filter, Zeiss). Cells which contained clearly condensed chromatin or fragmented nuclei were scored as apoptotic cells. ≧500 cells were counted in each sample. Apoptotic data are presented as percentage of apoptotic cells±S.D. for three independent experiments.
FOXO1 siRNA used in the study was purchased from Santa Cruz (Santa Cruz, Calif.). […] Transfection of human prostate cancer cells with FOXO1 siRNA or negative control siRNA was performed in 100 mm cell culture dishes at a density of 2×10^6 cells/dish using Lipofectamine 2000 (Invitrogen, Carlsbad, Calif.) and 300 pmol of siRNA duplex, resulting in a final siRNA concentration of 30 nM. siRNA transfected cells were incubated for 48-72 h prior to α-TEA treatment.

Akt = test: Western blot of phosphorylated Akt (Ser 473) and total Akt in prostate cancer cells
Excerpt: Previous studies have shown that α-TEA is an effective inducer of apoptosis in human prostate cancer cells (Anderson et al., 2004). Dose- and time-dependent pro-apoptotic effects of α-TEA in prostate cancer cells are mediated by Fas/FADD/caspase-8/tBid and Fas/Daxx/Ask1/JNK1/2/Bax, leading to activation of caspases-9 and -3. Thus, the Akt inhibiting activity of α-TEA was investigated in prostate cancer cells. Since phosphorylation of Akt at Ser 473 is required for its full activation (Cheng et al., 2005), we examined the phosphorylation status of Akt using an antibody that specifically recognizes Akt phosphorylated at Ser 473 in all three Akt isoforms (Upstate Cell Signaling Solutions (Charlottesville, Va.)). α-TEA decreased the levels of the phosphorylated forms of Akt. […] As verification that the decreases in phosphorylation status of Akt correlated with decreased kinase activity, the phosphorylation status of GSK3β, a downstream Akt target, was evaluated following α-TEA treatments. […] GAPDH levels were assayed with each immunoblot assay as a protein loading control.
Since Akt has three isoforms; namely, Akt1, Akt2, and Akt3, it was of interest to determine if α-TEA treatment was reducing the phosphorylated status of all three isoforms. Following α-TEA treatment the three Akt isoforms were immunoprecipitated with isoform specific antibodies, followed by western immunoblotting analyses using antibody specific for phospho-Akt. The protein levels of the isoforms were also determined. […] Treatment diminished the phosphorylation levels in all three Akt isoforms in both LNCaP and PC-3-GFP cells.
1×10^7 LNCaP or PC-3 3-GFP cells were treated with α-TEA and lysed in RIPA lysis buffer in the presence of protease inhibitors. […] Beads were washed 4 times with PBS and the proteins were released from the beads by boiling in Laemmli buffer for 5 min. Immunoprecipitated proteins were identified by SDS-PAGE followed by western immunoblot analyses.
Since Akt is activated, at least in part, by PI3K, we were interested to see if blockage of PI3K activity using the PI3K inhibitor LY294002 (Calbiochem-Novabiochem Corp. (San Diego, Calif.)) (Vlahos et al., 1994) would augment the apoptotic response induced by α-TEA.

PC-3-GFP cells = test: Apoptosis by DAPI staining, PC-3-GFP
Procedure: as §1

NOXA = NOXA mRNA (RT-PCR) and protein (Western blot) levels
PARP = PARP cleavage (p84) by Western blot, densitometry
Procedure: Whole-cell protein extracts were prepared as described previously (Yu et al., 1999), and 50 μg of protein was loaded per lane, separated using SDS-PAGE on a 10-15% gel under reducing conditions, and electroblotted onto a nitrocellulose membrane ([…] Optitran BA-S-supported nitrocellulose; Schleicher and Schuell, Keene, N.H.). Equal loading was verified using GAPDH antibody. Primary rabbit antibodies with specificity for PARP and primary goat antibody with specificity for Arg were purchased from Santa Cruz Biotechnology (Santa Cruz, Calif.). Horseradish peroxidase conjugated goat anti-rabbit or horseradish goat anti-mouse secondary antibody was purchased from Jackson Immunoresearch Laboratory (West Grove, Pa.). Horseradish peroxidase-conjugated donkey anti-goat serum was purchased from Santa Cruz Biotechnology. Immune complexes were visualized using enhanced chemiluminescence detection (Pierce Chemical Co., Rockford, Ill.). Fold differences in level of chemiluminescence were determined by densitometric analyses.
Primary mouse antibody specific for p73 was purchased from IMGENEX (San Diego, Calif.). Primary mouse antibody specific for caspase 8 was purchased from Cell Signaling Technology (Beverly, Mass.). Horseradish peroxidase conjugated goat anti-rabbit or goat anti-mouse secondary antibodies were purchased from Jackson Immunoresearch Laboratory (West Grove, Pa.). Horseradish peroxidase-conjugated donkey […] serum was purchased from Santa Cruz Biotechnology. Immune complexes were visualized using enhanced chemiluminescence detection (Pierce Chemical Co., Rockford, Ill.). Fold differences in level of chemiluminescence were determined by densitometric analyses.

c-Jun = c-Jun phosphorylation (JNK substrate) by Western blot
Procedure: Similar results were also observed in α-TEA treated MCF-7 cells in the presence of JNK inhibitor II (7.5 μM of JNK inhibitor II (Calbiochem-Novabiochem Corp. San Diego, Calif.) vs. DMSO control). Specifically, 68% reduction in the level of phosphorylated c-Jun (FIG. 11B, top panel), almost 100% reduction in NOXA expression (FIG. 11B, second panel), and 29% reduction in the level of PARP cleavage (FIG. 11B, third panel).
JNK siRNA was used to determine if JNK was involved in α-TEA regulation of NOXA expression. MDA-MB-435 and MCF-7 cells were transiently transfected with siRNA specific for JNK1/2 (JNK1/2 sense (5′-AAA GAA UGU CCU ACC UUC Utt-3′), JNK1/2 antisense (5′AGA AGG UAG GAC AUU CUU Utt-3′)). The cells were then treated with α-TEA for 15 h, or 20 h, respectively. […] Likewise in MCF-7 cells JNK siRNA blocked JNK1 phosphorylation by 26% (FIG. 11D, first panel), blocked c-Jun phosphorylation by 36% (FIG. 1D, second panel), reduced protein levels of full length p73 by 66% (FIG. 1D, third panel), reduced protein levels of NOXA by 14% (FIG. 1D, fourth panel), and reduced level of PARP cleavage by 44% (FIG. 11D, fifth panel). Anti-p73 antibodies used in the foregoing experiment were purchases from IMGENEX (San Diego, Calif.).

[1] = MCF-7 cells, 40 μM α-TEA 20 h, vs DMSO or control siRNA
[2] = MDA-MB-435 cells, 40 μM α-TEA 15 h, vs vehicle or control siRNA

Row | Structure (SMILES) | induction of apoptosis (apoptotic cells) (LNCaP cells; 6 μM LY294002, 24 h) | induction of apoptosis (apoptotic cells) (LNCaP cells; 12 μM LY294002, 24 h) | induction of apoptosis (apoptotic cells) (LNCaP cells; 25 μM LY294002, 24 h) | inhibition of levels of endogenously phosphorylated Akt (Akt; LNCaP cells, 10 μM α-TEA and/or 10 μM LY294002) | inhibition of levels of endogenously phosphorylated Akt (Akt; PC-3-GFP cells, 20 μM α-TEA and/or 10 μM LY294002) | apoptotic cells (PC-3-GFP cells; 25 μM LY294002, 24 h) | apoptotic cells (PC-3-GFP cells; 50 μM LY294002, 24 h) | reduction of α-TEA-induced NOXA expression (NOXA; [1]) | reduction of α-TEA-induced NOXA expression (NOXA; [2]) | reduction of level of PARP cleavage in α-TEA treated cells (PARP; [1]) | reduction of PARP cleavage (p84 fragment) in α-TEA treated cells (PARP; MDA-MB-435 cells, 40 μM α-TEA 15 h, vs control siRNA or vehicle) | reduction of α-TEA-induced c-Jun phosphorylation (c-Jun; [1]) | reduction of α-TEA-induced c-Jun phosphorylation (c-Jun; [2])
1 | O=c1cc(N2CCOCC2)oc2c(-c3ccccc3)cccc12 [LY294002, 2-(4-morpholinyl)-8-phenyl-4H-1-benzopyran-4-one, reference compound] | 4.9% | 13% | 41% | 20% | 60% | 6.2% | approximately 15% |  |  |  |  |  | 
2 | O=C1c2ccccc2-c2n[nH]c3cccc1c23 [JNK inhibitor II] |  |  |  |  |  |  |  | ~100% | 41% | 29% | 34% | 68% | 38%

Reference: patent publication US20100292316A1, “IMPROVED THERAPEUTIC METHODS AND COMPOSITIONS COMPRISING CHROMAN RING COMPOUNDS” (Research Development Foundation, priority 2007, published 2010)
